Experimental data published in PMC7933985 (The Journal of General Physiology, 2021).
Where a chain is given by its changes, count along the chain named. Read-outs that look alike come from different tables or passages of the source.

How the values were obtained:
UNC-8d [1] = biological target: T1, UNC-8d (Caenorhabditis elegans, UniProt Q21974, G387E); test: Two-electrode voltage clamp of oocytes coexpressing MEC-2 and UNC-8d; type: cell-based, C. elegans; details: for effect on UNC-8d current: 30 µM; for IC50: control saline (divalent-containing solution)
T1 sequence (Q21974 1-737 isoform Q21974-4 G347E): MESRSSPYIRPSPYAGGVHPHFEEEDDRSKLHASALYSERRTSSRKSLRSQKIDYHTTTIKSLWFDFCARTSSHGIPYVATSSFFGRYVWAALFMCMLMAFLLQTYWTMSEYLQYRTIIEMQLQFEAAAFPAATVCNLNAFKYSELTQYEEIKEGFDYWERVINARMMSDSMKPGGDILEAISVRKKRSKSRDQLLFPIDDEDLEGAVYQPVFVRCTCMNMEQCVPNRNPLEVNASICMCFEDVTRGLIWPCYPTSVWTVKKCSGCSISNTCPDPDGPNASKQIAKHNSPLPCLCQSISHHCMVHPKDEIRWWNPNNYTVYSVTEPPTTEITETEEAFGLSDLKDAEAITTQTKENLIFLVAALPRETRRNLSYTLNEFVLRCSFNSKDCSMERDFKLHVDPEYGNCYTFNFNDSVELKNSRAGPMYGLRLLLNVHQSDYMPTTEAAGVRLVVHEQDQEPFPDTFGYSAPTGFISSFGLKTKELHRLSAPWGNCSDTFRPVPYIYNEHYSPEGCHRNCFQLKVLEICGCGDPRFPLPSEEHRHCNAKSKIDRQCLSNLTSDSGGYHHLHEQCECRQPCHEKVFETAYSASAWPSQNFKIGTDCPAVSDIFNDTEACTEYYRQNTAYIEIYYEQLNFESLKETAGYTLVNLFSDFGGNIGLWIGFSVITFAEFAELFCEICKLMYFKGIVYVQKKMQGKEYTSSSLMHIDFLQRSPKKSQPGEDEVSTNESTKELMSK

MEC-4d = biological target: T2, MEC-4d (Caenorhabditis elegans, UniProt P24612, A713T); test: Two-electrode voltage clamp of oocytes coexpressing MEC-2 and MEC-4d; type: cell-based, C. elegans; details: for effect on MEC-4d current: 30 µM
T2 sequence (P24612 1-768 A713T): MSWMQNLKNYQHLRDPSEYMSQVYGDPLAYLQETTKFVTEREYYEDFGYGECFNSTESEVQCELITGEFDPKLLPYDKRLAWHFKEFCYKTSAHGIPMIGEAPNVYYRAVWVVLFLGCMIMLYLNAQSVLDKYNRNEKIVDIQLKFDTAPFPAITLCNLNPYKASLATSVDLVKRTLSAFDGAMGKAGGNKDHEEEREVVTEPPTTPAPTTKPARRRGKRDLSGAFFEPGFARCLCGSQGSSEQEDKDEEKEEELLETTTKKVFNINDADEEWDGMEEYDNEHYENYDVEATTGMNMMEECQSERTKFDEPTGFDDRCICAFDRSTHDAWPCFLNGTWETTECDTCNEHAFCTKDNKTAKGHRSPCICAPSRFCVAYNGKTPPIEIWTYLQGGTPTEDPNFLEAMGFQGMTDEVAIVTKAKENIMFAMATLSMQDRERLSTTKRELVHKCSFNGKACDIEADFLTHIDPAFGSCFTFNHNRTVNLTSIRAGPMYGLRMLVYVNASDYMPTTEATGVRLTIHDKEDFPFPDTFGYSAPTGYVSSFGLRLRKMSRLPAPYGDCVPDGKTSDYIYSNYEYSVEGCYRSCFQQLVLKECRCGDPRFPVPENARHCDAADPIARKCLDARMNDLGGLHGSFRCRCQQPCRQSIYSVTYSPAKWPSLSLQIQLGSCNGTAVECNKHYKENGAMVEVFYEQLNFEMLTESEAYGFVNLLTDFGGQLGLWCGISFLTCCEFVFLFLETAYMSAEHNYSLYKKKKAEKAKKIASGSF

uninjected oocytes = test: Two-electrode voltage clamp of uninjected; type: cell-based, Xenopus laevis; details: 30 µM
rASIC1a = details: allosteric effect; ref Lynagh et al., 2017; cited from earlier work
MEC-4d(E704K) = biological target: T3, MEC-4d(E704K) (Caenorhabditis elegans, UniProt P24612, A713T/E704K); test: cell-based; parameters: species or system C. elegans; details: for drug-induced change in current (Idrug) compared with absence of drug: 700 µM drug, −85 mV
T3 sequence (P24612 1-768 E704K/A713T): T2 sequence (P24612 1-768 A713T) with E704K

DEGT-1d = test: Two-electrode voltage clamp of oocytes coexpressing MEC-2 and DEGT-1d; type: cell-based, C. elegans; details: for effect on DEGT-1d current: 30 µM; for ΔIdrug, change in current compared with uninjected oocytes: −85 mV, coexpressed with MEC-2
MEC-2 alone = biological target: T4, MEC-2 alone (Caenorhabditis elegans, UniProt Q27433); test: Two-electrode voltage clamp of oocytes expressing MEC-2 alone; type: cell-based, C. elegans; details: 300 µM amiloride, −85 mV
T4 sequence (Q27433 1-481): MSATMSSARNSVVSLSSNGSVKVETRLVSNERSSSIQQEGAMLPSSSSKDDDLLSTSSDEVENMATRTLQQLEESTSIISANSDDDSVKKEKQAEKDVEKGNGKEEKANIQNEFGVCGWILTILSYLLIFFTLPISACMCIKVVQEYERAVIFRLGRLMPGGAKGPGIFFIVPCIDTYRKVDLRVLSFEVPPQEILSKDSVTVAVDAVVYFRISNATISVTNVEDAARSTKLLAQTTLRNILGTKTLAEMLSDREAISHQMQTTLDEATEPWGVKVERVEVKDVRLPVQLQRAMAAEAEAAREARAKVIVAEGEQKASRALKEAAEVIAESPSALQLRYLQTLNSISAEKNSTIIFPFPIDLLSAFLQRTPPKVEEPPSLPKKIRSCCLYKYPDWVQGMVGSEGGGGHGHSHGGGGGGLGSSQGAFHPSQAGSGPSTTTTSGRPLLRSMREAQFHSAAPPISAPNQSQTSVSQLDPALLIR

DEGT-1d alone = test: Two-electrode voltage clamp of oocytes expressing DEGT-1d alone; type: cell-based, C. elegans; details: 300 µM amiloride, −85 mV, DEGT-1 alone without MEC-2
UNC-8d [2] = biological target: T1, UNC-8d; details: −100 mV, ref Miller-Fleming et al., 2016, cited from earlier work

For `N=C(N)c1ccccc1` [Benzamidine, benzamidine], the “effect on UNC-8d current” value (UNC-8d [1]) was “inhibited”.
For `CC(C)Cc1ccc(C(C)C(=O)O)cc1` (stereo not shown) [Ibuprofen, ibuprofen], the “voltage dependence of potentiation (EC50 vs voltage)” value (MEC-4d) was “Neither drug showed evidence of voltage dependence”, the “effect on MEC-4d current” value (MEC-4d) was “seems to potentiate” and the “effect on current in control (uninjected) oocytes” value (uninjected oocytes) was “little if any effect”. The “effect on rASIC1a” value (rASIC1a) was “inhibited”, the “drug-induced change in current (Idrug) compared with absence of drug” value (MEC-4d(E704K)) was 10.7 µA and the “effect on UNC-8d current” value (UNC-8d [1]) was “modestly inhibits”. For the same molecule, the “effect on DEGT-1d current” value (DEGT-1d) was “modestly inhibits”, the “ΔIdrug, change in current compared with uninjected oocytes” value (“ΔIdrug, change in current” for short) (DEGT-1d; 100 µM drug) was 0.19 µA and the “ΔIdrug, change in current” value (DEGT-1d; 300 µM drug) was 0.322 µA.
For `NC(=Nc1ccccc1)NC(=O)c1nc(Cl)c(N)nc1N` [Phenamil, phenamil], the “effect on MEC-4d current” value (MEC-4d) was “inhibited” and the “effect on UNC-8d current” value (UNC-8d [1]) was “inhibited”.
In the case of `N=C(N)NC(=O)c1nc(Cl)c(N)nc1N` [Amiloride, amiloride], the “effect on MEC-4d current” value (MEC-4d) is reported as “inhibited”, the “ΔIdrug, change in current” value (MEC-2 alone) is reported as −0.0067 µA and the “effect on UNC-8d current” value (UNC-8d [1]) is reported as “inhibited”. For the same molecule, the “ΔIdrug, change in current” value (DEGT-1d alone) was 0.0288 µA, the “ΔIdrug, change in current” value (DEGT-1d; 100 µM drug) was 0.111 µA and the “ΔIdrug, change in current” value (DEGT-1d; 300 µM drug) was 0.0623 µA.
In the case of `NC(=NCc1ccccc1)NC(=O)c1nc(Cl)c(N)nc1N` [Benzamil, benzamil], the “effect on MEC-4d current” value (MEC-4d) is given as “inhibited”, the IC50 (UNC-8d [2]; divalent-containing solution) is given as 47 µM and the IC50 (UNC-8d [2]; divalent-free solution) is given as 119 µM. For the same molecule, the “effect on UNC-8d current” value (UNC-8d [1]) was “inhibited”, the IC50 (UNC-8d [1]; IC50, −60 mV) was 14.8 ± 1.6 µM and the IC50 (UNC-8d [1]; IC50, −100 mV) was 15.1 µM. For the same molecule, the “voltage dependence of block” value (UNC-8d [1]; voltages between −100 and −20 mV) was “not voltage-dependent”.
For `CC(C(=O)O)c1ccc(-c2ccccc2)c(F)c1` (stereo not shown) [Flurbiprofen, flurbiprofen], the “effect on UNC-8d current” value (UNC-8d [1]) was “partially inhibit” and the “effect on DEGT-1d current” value (DEGT-1d) was “partially inhibit”.
In the case of `O=C(O)Cc1ccccc1Nc1c(Cl)cccc1Cl` [Diclofenac, diclofenac], the “effect on UNC-8d current” value (UNC-8d [1]) is reported as “partially inhibit”.
For `CC(=O)Oc1ccccc1C(=O)O` [Aspirin, aspirin], the EC50 (MEC-4d) was 79.9 ± 3.7 µM, the “voltage dependence of potentiation (EC50 vs voltage)” value (MEC-4d) was “Neither drug showed evidence of voltage dependence” and the EC50 (MEC-4d(E704K)) was 179 ± 56 µM. The “drug-induced change in current (Idrug) compared with absence of drug” value (MEC-4d(E704K)) was 6.53 µA.
For `CC(C)Cc1ccc([C@H](C)C(=O)O)cc1` [S-Ibu, S-ibuprofen], the “difference in drug-sensitive current compared with uninjected oocytes (ΔIdrug)” value (MEC-4d; 30 µM ibuprofen isomer) was 4.7 µA.
For `CCN(c1nc(N)c(C(=O)NC(=N)N)nc1Cl)C(C)C` [EIPA, 5-(N-ethyl-N-isopropyl)amiloride], the IC50 (MEC-4d) was 3.06 ± 0.6 µM, the “voltage dependence of apparent affinity (block)” value (MEC-4d) was “insensitive to voltage” and the “effect on MEC-4d current” value (MEC-4d) was “inhibited”. The “effect on current in control (uninjected) oocytes” value (uninjected oocytes) was “no detectable effect”, the “effect on UNC-8d current” value (UNC-8d [1]) was “inhibited” and the “effect on DEGT-1d current” value (DEGT-1d) was “no detectable effect”.
In the case of `O=C(O)c1ccccc1O` [Salicylic acid, salicylic acid], the “effect on DEGT-1d current” value (DEGT-1d) is reported as “partially inhibit”.
